Source: patent US20110053954A1, “METHOD OF TREATMENT AND/OR PREVENTION OF BRAIN, SPINAL OR NERVE INJURY” (priority 2001, published 2011)

Key:
Type in all cases: in vivo, rat
Male Sprague Dawley rats [1] = test: Rotarod motor outcome after traumatic brain injury (impact acceleration model); details: i.v. at 30 minutes after injury, NK-1 antagonist 10 mg/kg, MK801 0.3 mg/kg, compared with saline vehicle, 24 h to 10 days post-injury
Description: (§1) Male Sprague Dawley rats (400±25 g) were pre-trained on both the Rotarod and Barnes maze so as to assess the effects of the compound on post-traumatic motor and cognitive outcome, respectively. After one week of training, rats were severely injured using the impact acceleration model of traumatic brain injury (2 meters) and administered either of the NK-1 receptor antagonist N-(3,5-bis-trifluoromethylbenzyl)-N-methyl-6-(4-methyl-piperazin-1-yl)-4-o-tolyl-nicotinamide (10 mg/kg i.v., based on active, free base), the NMDA (N-methyl-D-aspartate) antagonist MK801 ((+)-10,11-dihydro-5-methyl-5H-dibenzo[a,d]cyclo-hepten-5,10-diyldiammonium maleate; Dizocilpine maleate; 0.3 mg/kg i.v., based on active, free base) or 0.9% saline vehicle (n=10/group) at 30 minutes after injury.
Over the next 9 days, there was a gradual improvement in motor performance, however the deficit was always significant compared to pre-injury.

Male Sprague Dawley rats [2] = test: Barnes maze cognitive outcome after traumatic brain injury; details: i.v. at 30 minutes after injury
Description: as §1
Prior to injury, rats were trained to locate an escape tunnel (from aversive sound and light) within 20 sec. This time factor depends on the ability of the animal to learn and remember the location of the escape tunnel.

Male Sprague Dawley rats [3] = test: Mortality after severe traumatic brain injury; details: i.v. at 30 minutes after injury, saline 30%
Description: as §1
Mortality in rats in this severe model of injury is normally between 20 and 30%. In the saline treated animals, mortality was indeed 30%. […] This high mortality was consistent with this injury level being severe as confirmed by post mortem gross histological analysis of all brains.

Male Sprague Dawley rats [4] = test: Evans Blue extravasation as marker of blood brain barrier permeability after traumatic brain injury; details: Evans Blue i.v. at 4.5 h after injury, circulating 30 mins, saline standardized to 100%
Description: Edema formation in the immediate post-traumatic period is thought to be vasogenic in origin, where increased permeability of the blood brain barrier permits protein extravasation and water accumulation in the brain interstitium. We used Evans Blue extravasation as a marker of blood brain permeability after traumatic brain injury and treatment with the NK-1 receptor antagonist N-(3,5-bis-trifluoromethyl-benzyl)-N-methyl-6-(4-methyl-piperazin-1-yl)-4-o-tolyl-nicotinamide.
At 4.5 h after induction of brain injury, animals were administered i.v. Evans Blue which was allowed to circulate for 30 mins. At that time point, animals were sacrificed and their brains removed for analysis of Evans Blue penetration. The amount of Evans Blue accumulation in the brains of saline treated animals was standardized to 100%. […] As anticipated, uninjured (sham) animals had no significant Evans Blue accumulation in brain tissue.

Male Sprague Dawley rats [5] = test: Respiratory pattern and weaning off the ventilator after brain injury; details: brain injured rats
Description: as §1
This stability in respiration is thought to be due to both central effects on respiration and by the NK-1 receptor antagonist administered in the method of treatment of the present invention reducing pulmonary edema formation in brain injured animals.

Male Sprague Dawley rats [6] = test: Exploratory behavior and self-grooming (post-traumatic depression) after brain injury; details: brain injured rats, compared with non-injured animals

SMILES: Cc1ccccc1-c1cc(N2CCN(C)CC2)ncc1C(=O)N(C)Cc1cc(C(F)(F)F)cc(C(F)(F)F)c1 [N-(3,5-bis-trifluoromethyl-benzyl)-N-methyl-6-(4-methyl-piperazin-1-yl)-4-o-tolyl-nicotinamide]
- motor outcome (Rotarod Motor Score) after brain injury (Male Sprague Dawley rats [1]): significantly better motor outcome
- latency to escape the aversive stimuli (Barnes Cognitive Score) (Male Sprague Dawley rats [2]; at 24 h / at any time point after injury, pre-injury within 20 sec): did not demonstrate an increased latency
- latency to escape the aversive stimuli, course over the ensuing 9 days (Male Sprague Dawley rats [2]; days 2-10 post-injury): improved with each assessment
- mortality (Male Sprague Dawley rats [3]): 0%
- Evans Blue accumulation in brain relative to saline treated animals (Male Sprague Dawley rats [4]): 18%
- weaning off of the ventilator (Male Sprague Dawley rats [5]; compared with any other treatment group): far more quickly
- respiratory pattern (Male Sprague Dawley rats [5]; compared with saline and MK801 treated counterparts): more stable respiratory pattern
- exploratory behavior and self-grooming (Male Sprague Dawley rats [6]): not significantly different from non-injured animals
